Reference: patent US11370775B2, “Substituted benzimidazole derivatives as D-amino acid oxidase (DAAO) inhibitors” (NATIONAL TAIWAN UNIVERSITY, priority 2016, dated 2022)

Key:
porcine kidney DAO = biological target: T1, porcine kidney DAO (Sus scrofa, UniProt P00371); assay: pkDAO enzymatic assay (porcine kidney DAO IC50 assay); type: biochemical; conditions: D-alanine substrate, pH 8.3, 37° C., without FAD
T1 construct: purchased Sigma-Aldrich; host or cells: porcine kidney
Procedure: The DAAO enzymatic activity assay was modified according to the report of Oguri et al (Oguri, S., Screening of d-amino acid oxidase inhibitor by a new multi-assay method. Food chemistry 2007, 100 (2), 616). The DAAO activity was measured by using substrate D-alanine reaction produced hydrogen peroxide (H2O2) to further react with 3-(4-hydroxyphenyl) propionic acid (HPPA). The HPPA were oxidized by H2O2 and peroxidase to become the fluorogenic dimer which was measured to represent the activity of DAAO.
For porcine kidney DAO IC50 assay, the DAO substrate was prepared in 50 mM D-alanine (dissolved in 0.2 M Tris-HCl buffer, pH 8.3). A 100 μl of D-alanine solution was mixed with 4 μl (in 100% dimethyl sulfoxide, DMSO) of different concentrations of candidate compounds shown in tables below ranging from 48.83 μM, 97.66 μM, 195.31 μM, 390.63 μM, 781.25 μM, 1.56 mM, 3.13 mM, 6.25 mM, 12.50 mM, 25.00 mM, and 50.00 mM, with a final DMSO concentration of 0.167% in each reaction concentration. 10 μl of D-alanine and candidate compound mixture was incubated with 220 μl of Reaction Master Mix in black 96 well plate at 37° C. for 5 minutes. The Reaction Master Mix contained 110 μl of 5 U/mL porcine kidney DAO (Sigma-Aldrich, USA) solution (dissolved with 0.2 M Tris-HCl buffer, pH 8.3), 1.1 mL of 15 U/mL peroxidase solution (dissolved with 0.2 M Tris-HCl buffer, pH 8.3), 1.1 mL of 20 mM HPPA solution (dissolved with 0.2 M Tris-HCl buffer, pH 8.3), and 22 ml of 2 M Tris-HCl buffer (pH 8.3) for 110 reaction assays.
Fluorescence intensity (Fs) was measured at 405 nm by irradiation excitation at 320 nm. The higher the DAO enzymatic activity was, the higher the fluorescence intensity. The fluorometric inhibition indicator (Fi) was obtained from the following equation: Fi=(Fs-FDrug)/(FDMSO), where the fluorescent drug blank (FDrug) was measured in the drug mixture solution (using 0.2 M Tris HCl buffer, pH 8.3, without D-alanine). A DMSO blank (FDMSO) was measured under a 100% DMSO solution.
Although FAD is generally included in the reaction mixture in the D-amino acid oxidase assay since it easily dissociates from the holoenzyme, the present method was performed without FAD. The inhibitory effect of DAO inhibitors was compared by using inhibitory concentrations leading to 50% inhibition of DAAO activity (IC50). The IC50 values were calculated by nonlinear regression model using GraphPad Prism, version 5(GraphPad Software, Inc., La Jolla, Calif.).

[1] = biological target: T2, DAO in SK-N-SH neuroblastoma cells (Homo sapiens, UniProt P14920); assay: Cell-based DAO assay in SK-N-SH cells; design: key to Relative DAO activity normalize to DMSO at Final Conc. 100 uM / Relative DAO activity normalize to DMSO at Final Conc. 10 uM: fraction of DMSO-control DAO activity (1 = DMSO); conditions: SK-N-SH 1.25*10^5 cells/well, drug treated for 3.5 hr; for IC50: 50 mM D-serine
T2 construct: endogenous in cells; host or cells: SK-N-SH neuroblastoma cells (ATCC)
T2 sequence (P14920 whole entry): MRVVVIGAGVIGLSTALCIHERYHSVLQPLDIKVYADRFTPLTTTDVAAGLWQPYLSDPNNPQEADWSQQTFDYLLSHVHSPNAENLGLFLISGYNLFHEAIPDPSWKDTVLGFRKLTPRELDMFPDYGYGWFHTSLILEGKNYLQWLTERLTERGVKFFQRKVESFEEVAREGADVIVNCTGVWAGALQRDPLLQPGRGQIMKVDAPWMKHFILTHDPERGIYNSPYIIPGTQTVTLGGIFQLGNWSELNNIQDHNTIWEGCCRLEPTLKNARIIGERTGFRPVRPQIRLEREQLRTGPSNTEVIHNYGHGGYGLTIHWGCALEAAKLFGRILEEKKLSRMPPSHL
Procedure: The SK-N-SH neuroblastoma cell line was purchased from American Type Culture Collection (ATCC). It was cultured in MEM media (Invitrogen/GIBCO, Rockville, Md.) supplemented with 10% fetal bovine serum, 1×NEAA (Invitrogen/GIBCO) at 37° C. with 5% CO2 in a humidified atmosphere. Cells were trypsinized and plated into a black 96-well plate (NUNC No. 237108) at a density of 125,000 cells/well in 50 μl before cell-based DAO assay.
The cellular DAO activity assay was using a method modified according to the report of Brandish et al. (Brandish, P. E., et al., A cell-based ultra-high-throughput screening assay for identifying inhibitors of D-amino acid oxidase. J Biomol Screen, 2006. 11(5): p. 481-7). SK-N-SH cells were suspended in assay buffers of HANKS buffer solution (Invitrogen/GIBCO No. 14025-092) with 20 mM HEPES. D-serine of (final concentration 50 mM) was added in each well as the substrate for DAO enzyme. The Amplex Red Hydrogen Peroxide/Proxidase Assay Kit (Molecular Probes/Invitrogen, cat. A22188) was used to measure H2O2 production which diffused across the cell membrane into the assay medium after DAO reaction. After seeding cells into black 96-well plate (Nunc No. 237108, Denmark), 50 μl of SK-N-SH cells (125,000 cells/well) was mixed with 50 μl drug solution (2.5 fold of interesting final concentration) and incubate at 37° C. with 5% CO2 in a humidified atmosphere for 30 minutes. After 30 minutes later, 25 μl of a 5 fold mixture containing D-serine, horseradish peroxidase (HRP), and Amplex Red was added into wells containing 100 μl of cell-drugs mixture and incubated at 37° C. with 5% CO2 in a humidified atmosphere for 3 hours. The final concentration of DMSO is below 1%. The fluorescence signal was then detected in SpectraMax M2e microplate reader (Molecular Devices, USA) with excitation at 544 nm and emission at 590 nm. The optimized assay buffer contained a final concentration of 50 mM D-serine, 0.625 units HRP, and 50 μM Amplex Red in a 125 μl assay volume.

T1 sequence (P00371 whole entry): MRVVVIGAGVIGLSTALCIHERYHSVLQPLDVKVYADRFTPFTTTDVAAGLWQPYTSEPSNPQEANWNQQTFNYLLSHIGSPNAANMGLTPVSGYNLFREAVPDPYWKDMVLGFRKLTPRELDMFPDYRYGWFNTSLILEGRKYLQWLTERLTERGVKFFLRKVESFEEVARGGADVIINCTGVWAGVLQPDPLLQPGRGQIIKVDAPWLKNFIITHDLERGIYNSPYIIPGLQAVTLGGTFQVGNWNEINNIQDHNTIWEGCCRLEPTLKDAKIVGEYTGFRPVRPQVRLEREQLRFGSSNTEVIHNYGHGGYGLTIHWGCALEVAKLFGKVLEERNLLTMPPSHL

Row | Structure (SMILES) | IC50 (porcine kidney DAO) [µM] | Relative DAO activity normalize to DMSO at Final Conc. 10 uM [1] | Relative DAO activity normalize to DMSO at Final Conc. 100 uM [1] | IC50 [1] [µM]
1 | COc1c(C)cnc(C[S+]([O-])c2nc3cc(OC(=O)Cc4ccccc4)ccc3[nH]2)c1C (stereo not drawn) [compound 28094, 2-(((4-methoxy-3,5-dimethylpyridin-2-yl)methyl)sulfinyl)-1H-benzo[d]imidazol-5-yl 2-phenylacetate] | 21.1 | 1.10 | 0.58 | 121
2 | COc1c(C)cnc(C[S+]([O-])c2nc3cc(OC(=O)C4CC4)ccc3[nH]2)c1C (stereo not drawn) [compound 28092, 2-(((4-methoxy-3,5-dimethylpyridin-2-yl)methyl)sulfinyl)-1H-benzo[d]imidazol-5-yl cyclopropanecarboxylate] | 46.7 | 0.94 | 0.58 | 136
3 | COc1c(C)cnc(C[S+]([O-])c2nc3cc(OC(=O)C4CCC4)ccc3[nH]2)c1C (stereo not drawn) [compound 25027, 2-(((4-methoxy-3,5-dimethylpyridin-2-yl)methyl)sulfinyl)-1H-benzo[d]imidazol-5-yl cyclobutanecarboxylate] | 21 | 1.15 | 0.69 | 240
4 | COc1c(C)cnc(CN(Cc2ncc(C)c(OC)c2C)c2nc3cc(C(=O)O)ccc3n2CCC2=CCCCC2)c1C [compound 21105, 2-(bis((4-methoxy-3,5-dimethylpyridin-2-yl)methyl)amino)-1-(2-(cyclohex-1-en-1-yl)ethyl)-1H-benzo[d]imidazole-5-carboxylic acid] | 301 | 0.89 | 0.58 | 219
5 | COc1ccc(C(=O)Oc2ccc3[nH]c([S+]([O-])Cc4ncc(C)c(OC)c4C)nc3c2)cc1 (stereo not drawn) [compound 11020, 2-(((4-methoxy-3,5-dimethylpyridin-2-yl)methyl)sulfinyl)-1H-benzo[d]imidazol-5-yl 4-methoxybenzoate] | 10.4 | 0.97 | 0.67 | 221
6 | O=c1[nH]oc2ccc(Cl)cc12 [CBIO, reference compound] | 0.583 | 1.00 | 0.83 | 392
7 | COC(=O)c1ccc2c(c1)N=C(N(Cc1ncc(C)c(OC)c1C)Cc1ncc(C)c(OC)c1C)N(Cc1ccco1)C2 [compound 26072, Methyl 2-(bis((4-methoxy-3,5-dimethylpyridin-2-yl)methyl)amino)-3-(furan-2-ylmethyl)-3,4-dihydroquinazoline-7-carboxylate] | 236 | 0.87 | 0.74 | 393
8 | COc1c(C)cnc(C[S+]([O-])c2nc3cc(OC(=O)C=C(C)C)ccc3[nH]2)c1C (stereo not drawn) [compound 12125, 2-(((4-methoxy-3,5-dimethylpyridin-2-yl)methyl)sulfinyl)-1H-benzo[d]imidazol-5-yl 3-methylbut-2-enoate] | 13.3 | 0.80 | 0.50 | 122
9 | CCCCC(=O)Oc1ccc2[nH]c([S+]([O-])Cc3ncc(C)c(OC)c3C)nc2c1 (stereo not drawn) [compound 25016, 2-(((4-methoxy-3,5-dimethylpyridin-2-yl)methyl)sulfinyl)-1H-benzo[d]imidazol-5-yl pentanoate] | 13.4 | 1.00 | 0.62 | 188
10 | COc1c(C)cnc(C[S+]([O-])c2nc3cc(OC(C)=O)ccc3[nH]2)c1C (stereo not drawn) [compound 21122, 2-(((4-methoxy-3,5-dimethylpyridin-2-yl)methyl)sulfinyl)-1H-benzo[d]imidazol-5-yl acetate] | 21.1 | 0.99 | 0.50 | 149
11 | C/C=C\C(=O)Oc1ccc2[nH]c([S+]([O-])Cc3ncc(C)c(OC)c3C)nc2c1 (stereo not drawn) [compound 12124, 2-(((4-methoxy-3,5-dimethylpyridin-2-yl)methyl)sulfinyl)-1H-benzo[d]imidazol-5-yl (Z)-but-2-enoate] | 11.2 | 0.97 | 0.36 | 108
12 | COc1c(C)cnc(C[S+]([O-])c2nc3cc(OC(=O)OC(C)(C)C)ccc3[nH]2)c1C (stereo not drawn) [compound 21132, tert-butyl (2-(((4-methoxy-3,5-dimethylpyridin-2-yl)methyl)sulfinyl)-1H-benzo[d]imidazol-5-yl)carbonate] | 64.2 | 0.94 | 0.61 | 175
13 | COC(=O)c1ccc2c(c1)N=C(NCc1ncc(C)c(OC)c1C)N(CCC1=CCCCC1)C2 [compound 21106, Methyl 3-(2-(cyclohex-1-en-1-yl)ethyl)-2-(((4-methoxy-3,5-dimethylpyridin-2-yl)methyl)amino)-3,4-dihydroquinazoline-7-carboxylate] | 488 | 1.02 | 0.77 | 478
14 | COc1c(C)cnc(C[S+]([O-])c2nc3cc(OC(=O)c4ccco4)ccc3[nH]2)c1C (stereo not drawn) [compound 12122, 2-(((4-methoxy-3,5-dimethylpyridin-2-yl)methyl)sulfinyl)-1H-benzo[d]imidazol-5-yl furan-2-carboxylate] | 12.5 | 0.98 | 0.57 | 147
15 | COc1c(C)cnc(C[S+]([O-])c2nc3cc(OP(=O)(Oc4ccccc4)Oc4ccccc4)ccc3[nH]2)c1C (stereo not drawn) [compound 13084, 2-(((4-methoxy-3,5-dimethylpyridin-2-yl)methyl)sulfinyl)-1H-benzo[d]imidazol-5-yl diphenyl phosphate] | 181 | 0.71 | 0.49 | 34.9
